Assay results from ChEMBL document CHEMBL1201862, “PubChem BioAssay data set” (2004).
Activity calls are given as the source filed them.

Key:
[1] = target: T1, Induced myeloid leukemia cell differentiation protein Mcl-1 (Homo sapiens, UniProt Q07820); assay: MCL1-BIM BH3 interaction inhibitors, dose response, biochemical, fluorescence polarization, BIM-BH3 peptide, 1536-well (AID 2217)
[2] = target: Bcl-2-like protein 1 (Homo sapiens, UniProt Q07817); assay: BCL-XL inhibitors, dose response, selectivity assay for MCL1 inhibitor project, biochemical, fluorescence polarization, 1536-well (AID 2218)
[3] = target: Genome polyprotein (dengue virus type 2, UniProt P29990); assay: Dengue-2 NS5 methyltransferase inhibitors, primary screen, biochemical, confirmation dose response (AID 588689); type: functional
Genome polyprotein, sequence (P29990 2492-3391 limits assumed): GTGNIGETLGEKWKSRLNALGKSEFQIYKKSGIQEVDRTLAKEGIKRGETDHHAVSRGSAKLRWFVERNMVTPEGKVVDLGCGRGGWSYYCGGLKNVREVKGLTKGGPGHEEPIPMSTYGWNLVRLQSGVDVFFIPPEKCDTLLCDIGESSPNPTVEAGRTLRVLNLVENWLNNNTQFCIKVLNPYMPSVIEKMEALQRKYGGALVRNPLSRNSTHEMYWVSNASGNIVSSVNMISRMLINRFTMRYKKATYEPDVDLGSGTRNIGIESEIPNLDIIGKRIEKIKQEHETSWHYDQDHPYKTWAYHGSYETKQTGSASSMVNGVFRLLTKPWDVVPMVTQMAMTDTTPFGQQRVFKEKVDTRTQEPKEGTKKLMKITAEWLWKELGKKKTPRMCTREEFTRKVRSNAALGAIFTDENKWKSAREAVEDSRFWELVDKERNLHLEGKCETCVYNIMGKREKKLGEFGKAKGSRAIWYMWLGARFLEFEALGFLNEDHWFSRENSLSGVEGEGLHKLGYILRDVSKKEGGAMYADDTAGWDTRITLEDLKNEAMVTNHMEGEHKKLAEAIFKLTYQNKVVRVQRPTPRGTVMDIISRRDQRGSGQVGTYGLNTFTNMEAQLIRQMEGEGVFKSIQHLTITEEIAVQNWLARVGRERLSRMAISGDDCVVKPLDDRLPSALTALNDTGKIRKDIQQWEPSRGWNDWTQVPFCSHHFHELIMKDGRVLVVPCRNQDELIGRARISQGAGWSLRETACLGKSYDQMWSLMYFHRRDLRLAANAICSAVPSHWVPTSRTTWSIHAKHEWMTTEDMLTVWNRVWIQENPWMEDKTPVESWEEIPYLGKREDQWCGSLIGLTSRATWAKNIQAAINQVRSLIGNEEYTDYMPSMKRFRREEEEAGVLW

[4] = target: Protein-tyrosine kinase 2-beta (Homo sapiens, UniProt Q14289);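 further: potency of inhibitors of PYK2 kinase phosphorylation of poly-GT substrate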
Protein-tyrosine kinase 2-beta, sequence (Q14289 whole entry): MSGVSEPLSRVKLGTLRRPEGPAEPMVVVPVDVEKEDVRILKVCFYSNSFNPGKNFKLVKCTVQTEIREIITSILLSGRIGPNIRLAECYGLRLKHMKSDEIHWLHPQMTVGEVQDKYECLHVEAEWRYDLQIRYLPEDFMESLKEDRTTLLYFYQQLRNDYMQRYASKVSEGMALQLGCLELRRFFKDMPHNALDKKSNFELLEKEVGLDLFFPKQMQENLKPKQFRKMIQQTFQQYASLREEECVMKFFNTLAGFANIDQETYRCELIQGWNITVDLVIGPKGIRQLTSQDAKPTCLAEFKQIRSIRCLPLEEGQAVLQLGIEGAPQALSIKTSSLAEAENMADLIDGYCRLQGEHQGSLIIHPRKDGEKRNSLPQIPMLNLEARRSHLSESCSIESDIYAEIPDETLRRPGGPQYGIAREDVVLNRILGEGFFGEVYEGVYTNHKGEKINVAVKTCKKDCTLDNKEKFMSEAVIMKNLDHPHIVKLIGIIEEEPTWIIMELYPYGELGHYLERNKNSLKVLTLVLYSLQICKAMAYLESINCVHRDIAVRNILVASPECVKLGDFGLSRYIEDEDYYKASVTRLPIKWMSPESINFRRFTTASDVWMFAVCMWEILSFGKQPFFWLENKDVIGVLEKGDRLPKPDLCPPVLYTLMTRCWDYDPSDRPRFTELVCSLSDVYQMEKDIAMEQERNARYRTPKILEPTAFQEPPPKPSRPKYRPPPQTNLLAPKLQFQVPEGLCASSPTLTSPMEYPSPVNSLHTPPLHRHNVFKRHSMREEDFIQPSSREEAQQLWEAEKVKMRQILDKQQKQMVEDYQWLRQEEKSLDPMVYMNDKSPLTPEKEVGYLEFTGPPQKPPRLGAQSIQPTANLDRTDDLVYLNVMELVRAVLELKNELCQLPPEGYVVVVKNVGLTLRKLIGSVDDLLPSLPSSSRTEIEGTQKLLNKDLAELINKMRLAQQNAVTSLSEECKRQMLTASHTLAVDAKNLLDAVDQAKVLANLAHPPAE

[5] = target: T2, Bcl-2-like protein 10 (Homo sapiens, UniProt Q9HD36); assay: displacers of TR3 peptide from Bcl-B, primary screen, selectivity assay for Bfl-1 inhibitor project, biochemical, fluorescence polarization, FITC-TR3 peptide (AID 748);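 further: fluorescence polarization from a fluorescein-labelled TR3 peptide binding purified Bcl-B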
T2 sequence (Q9HD36 whole entry): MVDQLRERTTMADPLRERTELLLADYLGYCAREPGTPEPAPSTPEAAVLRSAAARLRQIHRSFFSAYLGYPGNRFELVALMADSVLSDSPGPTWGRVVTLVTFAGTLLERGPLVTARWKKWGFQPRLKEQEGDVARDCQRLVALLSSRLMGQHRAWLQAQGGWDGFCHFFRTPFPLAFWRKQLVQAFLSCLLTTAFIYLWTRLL

[6] = target: T1, Induced myeloid leukemia cell differentiation protein Mcl-1; type: functional
[7] = target: Sphingosine 1-phosphate receptor 2 (Homo sapiens, UniProt O95136); assay: Dose Response Cell Based Assay for Agonists of the S1P2 Receptor of Purchased Analogues. [Related pubchem assays: 729, 843, 854, 736 ]; type: functional
[8] = target: T3, Endoribonuclease toxin MazF (Escherichia coli K-12, UniProt P0AE70); assay: fluorescent RNA oligo signal without MazF, dose response, counter-screen for MazEF activator project, biochemical, fluorescence, single-stranded RNase substrate (AID 588502); type: functional
T3 sequence (P0AE70 whole entry): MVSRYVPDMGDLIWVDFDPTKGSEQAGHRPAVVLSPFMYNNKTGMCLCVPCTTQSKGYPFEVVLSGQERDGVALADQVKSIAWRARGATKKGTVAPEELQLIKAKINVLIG

[9] = target: T3, Endoribonuclease toxin MazF; assay: MazF toxin RNase activators, dose response, biochemical, fluorescence, single-stranded RNA substrate, uHTS hits (AID 588481); type: functional
[10] = Late stage counterscreen results from the probe development effort to identify activators of signal transducer and activator of transcription 1 (STAT1): luminescence-based cell-based dose response assay to identify cytotoxic compounds.; type: functional
[11] = target: Cytochrome P450 2D6 (Homo sapiens, UniProt P10635);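 further: CYP2D6 member of a cytochrome P450 panel assay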
[12] = cytotoxicity in KRAS-transformed pancreatic duct cells, primary screen, cell-based, fluorescence, HTS (AID 431); type: functional; conditions: Homo sapiens;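 further: cell line used: HPDE-C7K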
[13] = cytotoxicity in HPDE-C7 cells, cell-based, fluorescence, HTS (AID 430); type: functional; conditions: Homo sapiens
[14] = target: T4, Heat shock factor protein 1 (Mus musculus, UniProt P38532); assay: HSF1 potentiators in luciferase reporter cells, confirmation, cell-based, NIH3T3, luminescence, dose retest (AID 435004); type: functional;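 further: stress induced by proteasome inhibitor MG132 added 30 min after compound; luciferase reporter driven by HSF1 response element in NIH3T3 cells; actives raise luminescence as potentiators of the MG132 stress response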
T4 sequence (P38532 whole entry): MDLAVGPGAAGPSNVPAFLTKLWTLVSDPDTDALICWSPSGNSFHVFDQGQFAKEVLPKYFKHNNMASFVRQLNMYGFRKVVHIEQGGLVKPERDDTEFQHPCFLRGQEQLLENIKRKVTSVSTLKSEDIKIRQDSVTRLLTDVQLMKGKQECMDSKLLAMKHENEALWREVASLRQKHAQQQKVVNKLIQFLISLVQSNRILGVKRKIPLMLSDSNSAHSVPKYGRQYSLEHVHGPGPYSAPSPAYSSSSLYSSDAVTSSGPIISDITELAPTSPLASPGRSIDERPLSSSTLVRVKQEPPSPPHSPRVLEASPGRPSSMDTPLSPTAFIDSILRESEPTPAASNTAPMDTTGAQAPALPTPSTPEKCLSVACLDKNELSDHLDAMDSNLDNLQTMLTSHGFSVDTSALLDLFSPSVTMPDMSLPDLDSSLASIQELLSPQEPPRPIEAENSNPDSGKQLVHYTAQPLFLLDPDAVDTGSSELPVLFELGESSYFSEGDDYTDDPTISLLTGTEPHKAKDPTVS

[15] = target: T5, Estrogen receptor beta (Homo sapiens, UniProt Q92731); assay: ERβ–SRC-3 coactivator interaction inhibitors, confirmation, orthogonal assay, biochemical, ELISA, streptavidin-HRP readout (AID 1060)
T5 sequence (Q92731 whole entry): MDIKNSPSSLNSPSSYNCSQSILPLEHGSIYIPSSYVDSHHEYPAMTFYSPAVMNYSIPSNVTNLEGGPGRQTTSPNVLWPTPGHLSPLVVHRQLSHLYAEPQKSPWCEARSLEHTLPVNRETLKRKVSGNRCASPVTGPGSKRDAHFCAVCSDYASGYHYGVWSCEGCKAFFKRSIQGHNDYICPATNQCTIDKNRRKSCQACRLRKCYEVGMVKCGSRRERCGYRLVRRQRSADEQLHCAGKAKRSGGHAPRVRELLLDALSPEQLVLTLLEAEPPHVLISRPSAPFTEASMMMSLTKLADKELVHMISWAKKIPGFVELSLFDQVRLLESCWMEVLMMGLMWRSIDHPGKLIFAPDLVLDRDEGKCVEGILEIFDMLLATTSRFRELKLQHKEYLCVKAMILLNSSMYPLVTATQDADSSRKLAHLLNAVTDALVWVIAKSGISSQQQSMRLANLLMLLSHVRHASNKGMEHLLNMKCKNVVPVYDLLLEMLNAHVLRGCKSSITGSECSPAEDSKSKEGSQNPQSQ

[16] = target: T5, Estrogen receptor beta
[17] = target: T6, Tyrosine-protein phosphatase non-receptor type 7 (Homo sapiens, UniProt P35236); assay: inhibitors of human HePTP phosphatase, […], biochemical, absorbance, leukemia target (AID 521); type: functional
T6 sequence (P35236 whole entry): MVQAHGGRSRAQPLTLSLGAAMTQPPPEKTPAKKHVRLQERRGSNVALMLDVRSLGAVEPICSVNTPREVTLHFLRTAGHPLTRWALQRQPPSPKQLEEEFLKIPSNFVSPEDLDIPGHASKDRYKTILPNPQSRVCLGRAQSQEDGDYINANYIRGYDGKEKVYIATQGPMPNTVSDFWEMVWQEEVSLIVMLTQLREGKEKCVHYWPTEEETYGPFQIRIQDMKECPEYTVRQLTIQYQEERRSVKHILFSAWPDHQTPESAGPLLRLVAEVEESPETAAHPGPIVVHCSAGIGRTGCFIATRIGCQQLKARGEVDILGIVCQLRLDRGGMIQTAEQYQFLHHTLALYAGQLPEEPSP

[18] = target: Peroxisome proliferator-activated receptor gamma/Nuclear receptor coactivator 1 (Homo sapiens, UniProt P37231); assay: TR-FRET dose response biochemical High Throughput Screening assay for agonists of the steroid receptor coactivator 1 (SRC-1) recruitment by the peroxisome proliferator-activated receptor gamma (PPAR gamma): non-selective agonists. [Related pubchem assays (depositor defined):AID1300, AID1808, AID504735, AID631]; type: protein assay
[19] = target: Peroxisome proliferator-activated receptor gamma/Nuclear receptor coactivator 2 (Homo sapiens, UniProt P37231); assay: (§1) TR-FRET dose response biochemical High Throughput Screening assay for agonists of the steroid receptor coactivator 2 (SRC-2) recruitment by the peroxisome proliferator-activated receptor gamma (PPAR gamma): non-selective agonists. [Related pubchem assays: 1297, 1032 ]; type: functional
[20] = target: 72 kDa type IV collagenase (Homo sapiens, UniProt P08253); assay: Dose Response validation of uHTS RPN11 inhibitor hits using a MMP-2 Fluorescence assay.; type: functional
72 kDa type IV collagenase, sequence (P08253 whole entry): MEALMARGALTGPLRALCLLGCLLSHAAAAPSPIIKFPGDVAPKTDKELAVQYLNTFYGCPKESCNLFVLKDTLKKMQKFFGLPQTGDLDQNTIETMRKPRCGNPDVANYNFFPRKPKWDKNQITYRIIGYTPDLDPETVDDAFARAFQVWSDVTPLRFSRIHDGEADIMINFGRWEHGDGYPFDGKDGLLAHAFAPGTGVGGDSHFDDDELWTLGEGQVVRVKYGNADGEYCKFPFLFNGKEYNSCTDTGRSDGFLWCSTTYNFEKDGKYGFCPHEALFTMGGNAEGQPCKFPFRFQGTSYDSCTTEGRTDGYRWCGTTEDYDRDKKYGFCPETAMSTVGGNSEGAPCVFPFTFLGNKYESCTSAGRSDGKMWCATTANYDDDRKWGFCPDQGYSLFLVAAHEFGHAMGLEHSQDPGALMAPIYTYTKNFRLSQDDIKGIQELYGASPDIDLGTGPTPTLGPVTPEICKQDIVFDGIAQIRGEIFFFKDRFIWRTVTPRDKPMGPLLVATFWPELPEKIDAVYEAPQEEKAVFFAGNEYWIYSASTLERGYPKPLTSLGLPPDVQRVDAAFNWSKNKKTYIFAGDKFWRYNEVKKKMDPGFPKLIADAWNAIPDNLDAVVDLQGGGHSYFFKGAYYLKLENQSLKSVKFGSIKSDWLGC

[21] = target: Peroxisome proliferator-activated receptor gamma/Nuclear receptor coactivator 3 (Homo sapiens, UniProt P37231); assay: as §1, with “3 (SRC-3)” for “2 (SRC-2)”, “1301 (Confirmation screen.), 1048 (Primary screen.)]” for “1297, 1032 ]”; type: functional
[22] = yeast RAM network inhibitors, dose response, S. cerevisiae (AID 1307); type: functional
[23] = target: Prothrombin (Bos taurus, UniProt P00735); assay: thrombin inhibition, dose response, biochemical, fluorescence polarization, uHTS hits (AID 602369); type: functional
[24] = target: Nonstructural protein 1 (Influenza A virus, UniProt Q194T2); type: functional, Influenza A virus (A/California/07/2009(H1N1))
Nonstructural protein 1, sequence (Q194T2 whole entry): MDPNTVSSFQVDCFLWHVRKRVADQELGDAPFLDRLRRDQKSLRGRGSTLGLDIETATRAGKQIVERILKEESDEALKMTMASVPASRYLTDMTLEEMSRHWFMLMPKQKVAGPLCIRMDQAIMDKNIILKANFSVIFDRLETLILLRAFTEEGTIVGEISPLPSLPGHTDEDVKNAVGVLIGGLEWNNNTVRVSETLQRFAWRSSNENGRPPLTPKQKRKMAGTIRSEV

[25] = target: 26S proteasome non-ATPase regulatory subunit 14 (Homo sapiens, UniProt O00487); assay: inhibition of proteasome subunit RPN11 – biochemical, fluorescence polarization, uHTS hits, confirmation (AID 602368); type: functional
[26] = target: NADPH oxidase 1 (Homo sapiens, UniProt Q9Y5S8); type: functional, cell-based;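 further: Cell-based assay with luminescence read-out, IC50 derived from inhibitor dose-response curves; intracellular ROS from endogenous NOX1 in intact HT29 colon cancer cells; potency of inhibitors that lower the ROS luminescence signal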
NADPH oxidase 1, sequence (Q9Y5S8 whole entry): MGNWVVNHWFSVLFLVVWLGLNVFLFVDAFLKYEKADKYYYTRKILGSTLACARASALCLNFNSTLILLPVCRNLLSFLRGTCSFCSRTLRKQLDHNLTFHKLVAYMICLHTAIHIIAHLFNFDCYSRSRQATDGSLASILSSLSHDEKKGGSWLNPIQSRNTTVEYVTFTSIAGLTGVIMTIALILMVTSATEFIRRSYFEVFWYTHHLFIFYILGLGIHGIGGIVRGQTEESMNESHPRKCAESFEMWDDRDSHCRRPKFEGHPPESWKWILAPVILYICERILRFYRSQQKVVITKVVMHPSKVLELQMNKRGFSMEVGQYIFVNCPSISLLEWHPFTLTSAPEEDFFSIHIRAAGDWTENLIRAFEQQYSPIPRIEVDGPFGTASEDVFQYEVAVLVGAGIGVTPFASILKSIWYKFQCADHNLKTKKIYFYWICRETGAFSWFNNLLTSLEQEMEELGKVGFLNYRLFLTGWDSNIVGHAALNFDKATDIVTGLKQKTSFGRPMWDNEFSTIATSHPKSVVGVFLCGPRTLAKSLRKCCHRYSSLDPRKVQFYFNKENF

[27] = control 3'UTR Renilla luciferase suppression, dose response, counter-screen for Shn3 inhibitor project, cell-based, Clone20-Shn3RL, cherry-picked (AID 624133); type: functional
[28] = target: T7, Mannose-6-phosphate isomerase (Homo sapiens, UniProt P34949); assay: inhibitors of human PMI, primary screen, biochemical, fluorescence intensity, coupled assay (AID 1209)
T7 sequence (P34949 whole entry): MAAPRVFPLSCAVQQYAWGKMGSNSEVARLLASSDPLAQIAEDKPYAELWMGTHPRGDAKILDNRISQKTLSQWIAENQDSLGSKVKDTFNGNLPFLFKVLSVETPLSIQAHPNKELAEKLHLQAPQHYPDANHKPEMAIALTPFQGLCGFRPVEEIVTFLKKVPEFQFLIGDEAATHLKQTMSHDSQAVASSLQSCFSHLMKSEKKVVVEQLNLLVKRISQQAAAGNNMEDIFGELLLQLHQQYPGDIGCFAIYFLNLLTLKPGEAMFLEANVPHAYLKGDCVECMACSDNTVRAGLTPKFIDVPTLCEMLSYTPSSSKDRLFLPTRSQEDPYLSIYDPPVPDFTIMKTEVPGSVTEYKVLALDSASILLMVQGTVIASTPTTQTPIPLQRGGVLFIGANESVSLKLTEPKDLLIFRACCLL

[29] = target: T8, Polyadenylate-binding protein 1 (Homo sapiens, UniProt P11940); assay: PABP1 MLLE–PAM2 binding inhibitor potency, dose response, biochemical, fluorescence polarization, FITC-PAM2 peptide (AID 602259); type: functional; conditions: read-out: IC50_Mean
T8 sequence (P11940 whole entry): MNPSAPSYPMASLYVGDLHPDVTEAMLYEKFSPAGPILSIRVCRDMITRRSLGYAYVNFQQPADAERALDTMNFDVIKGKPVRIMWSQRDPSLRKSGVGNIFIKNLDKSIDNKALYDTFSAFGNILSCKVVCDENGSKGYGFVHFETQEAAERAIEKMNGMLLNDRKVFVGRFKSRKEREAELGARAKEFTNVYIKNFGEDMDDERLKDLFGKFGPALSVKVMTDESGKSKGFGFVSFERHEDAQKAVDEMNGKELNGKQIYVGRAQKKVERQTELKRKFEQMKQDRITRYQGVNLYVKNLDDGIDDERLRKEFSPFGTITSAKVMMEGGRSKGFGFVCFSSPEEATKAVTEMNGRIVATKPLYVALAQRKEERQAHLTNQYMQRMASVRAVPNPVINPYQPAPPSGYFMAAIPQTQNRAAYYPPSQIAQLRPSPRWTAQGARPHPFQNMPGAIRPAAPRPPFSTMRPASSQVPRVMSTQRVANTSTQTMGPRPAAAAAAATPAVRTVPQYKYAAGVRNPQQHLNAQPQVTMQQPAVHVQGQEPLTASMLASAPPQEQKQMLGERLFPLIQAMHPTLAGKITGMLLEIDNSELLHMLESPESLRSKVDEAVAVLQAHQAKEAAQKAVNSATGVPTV

[30] = system: INS1; assay: beta cell apoptosis inhibitors, cytokine rescue, dose response, luminescence, retest (AID 449756); type: functional, cell-based; conditions: Rattus norvegicus;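 further: cell death triggered by IL-1 beta plus TNF-alpha plus IFN-gamma mixture; protective hits raise ATP signal compared with cytokine alone wells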
[31] = target: T4, Heat shock factor protein 1; assay: inhibition of MG132-induced HSE-luciferase signal, confirmation, cell-based, NIH3T3, luminescence, dose retest (AID 2382); type: functional;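 further: NIH3T3 fibroblasts with HSF1-driven luciferase reporter stressed by proteasome inhibitor MG132; luminescence from HSF1-driven luciferase expression after 8 hours of MG132 stress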
[32] = Shn3 3'UTR reporter inhibitors, dose response, cell-based, Clone20 osteoblasts, firefly luciferase, cherry-picked (AID 624132); type: functional;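 further: firefly luciferase luminescence from reporter carrying the Shn3 3'UTR in osteoblasts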
[33] = target: T7, Mannose-6-phosphate isomerase; assay: human PMI inhibitors, high substrate, primary screen, biochemical, fluorescence intensity, high mannose 6-phosphate (AID 1220)
[34] = HepG2 cell cytotoxicity, dose response, cytotoxicity control for Shn3 inhibitor project, CellTiter-Glo, cherry-picked (AID 624134); type: functional, cell-based
[35] = target: T8, Polyadenylate-binding protein 1; assay: PABP1 MLLE–PAM2 interaction inhibitors, dose response, miRNA deadenylation inhibitor project, biochemical, fluorescence polarization, Cy5-PAM2 peptide, secondary (AID 602260); type: functional; conditions: read-out: IC50_Mean

T1 sequence (Q07820 whole entry): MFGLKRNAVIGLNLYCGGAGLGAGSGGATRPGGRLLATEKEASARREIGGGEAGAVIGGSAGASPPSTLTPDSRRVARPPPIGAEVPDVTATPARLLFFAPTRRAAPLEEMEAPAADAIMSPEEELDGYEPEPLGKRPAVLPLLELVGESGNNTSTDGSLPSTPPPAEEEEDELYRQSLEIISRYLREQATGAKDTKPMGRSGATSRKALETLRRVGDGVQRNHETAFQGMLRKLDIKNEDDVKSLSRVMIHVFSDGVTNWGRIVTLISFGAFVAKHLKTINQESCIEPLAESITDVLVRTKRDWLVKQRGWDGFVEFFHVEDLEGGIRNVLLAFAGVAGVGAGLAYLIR

Which IC50 [1] does the source give for `CCc1sc(C(C2C(=O)CC(C)(C)CC2=O)C2C(=O)CC(C)(C)CC2=O)cc1[N+](=O)[O-]` here?
The IC50 was 6.08 µM (active).

What about the IC50 [2] of the same molecule?
Its IC50 is > 109 µM (not active).

What about the IC50 [3] of the same molecule?
The IC50 was 16.4 µM (active).

What does the source list for `Cn1c(SCC(=O)Nc2ccc3nc(SCC(=O)N4CCCC4)sc3c2)nnc1-c1ccc(N)cc1`?
IC50 [4]: 2.5 µM (active); IC50 [5]: 58.3 µM (inactive); IC50 [6]: 1.82 µM (active)

With `Cc1cc(C(=O)Cn2cnc3c(oc4ccccc43)c2=O)c(C)n1Cc1ccccc1` as the molecule, how does the EC50 [7] read?
Its EC50 is > 30 µM (not active).

Which EC50 [8] does the source give for `CCN(CC)c1ccc2cc(C(=O)Nc3ccccn3)c(=O)oc2c1` here?
Its EC50 is > 99 µM (inactive).

And the EC50 [9]?
Its EC50 is > 99 µM (inactive).

What about the IC50 [10] of the same molecule?
The IC50 was > 55.7 µM (not active).

With `CCn1c(SCC(=O)N2CCOCC2)nc2oc3c(Cl)cc(Cl)cc3c(=O)c2c1=O` as the molecule, how does the AC50 [11] read?
The AC50 was 15.8 µM (inconclusive).

And the EC50 [12]?
The EC50 was > 20 µM (not active).

And the EC50 [13]?
The EC50 was > 20 µM (not active).

And the EC50 [14]?
Its EC50 is 16.1 µM (inconclusive).

And the IC50 [15]?
The IC50 was 13.3 µM (not active).

And the IC50 [16]?
The IC50 was 17.2 µM (active).

And the IC50 [17]?
The IC50 was > 100 µM (not active).

Which results are given for `CN(C)c1ccc(/C=C/C=C2/C(=O)NC(=O)N(c3ccccc3)C2=O)cc1`?
EC50 [18]: > 2.94 µM (inactive); EC50 [19]: 4.13 µM (active); IC50 [20]: 71.2 µM (active); EC50 [21]: > 79.4 µM (not active); IC50 [22]: 317 µM (active); IC50 [23]: 19.6 µM (active); IC50 [24]: 12.1 µM (active); IC50 [25]: 28.2 µM (active)

With `O=C(CCC(=O)Nc1ccccc1)Nc1ccccc1` as the molecule, how does the IC50 [26] read?
Its IC50 is > 17 µM (not active).

What does the source list for `Oc1ccc(CN2CCCc3ccccc32)c2cccnc12`?
AC50 [27]: 17.3 µM (active); IC50 [28]: > 50 µM (not active); IC50 [29]: > 66 µM (inactive); AC50 [30]: 11.8 µM (active); EC50 [31]: 29 µM (active); AC50 [32]: 5.4 µM (active); IC50 [33]: > 50 µM (not active); IC50 [24]: 32.2 µM (active); AC50 [34]: 8.25 µM (active); IC50 [35]: > 66 µM (inactive)
